Structures are written as SMILES. Where only a bound is given, the exact number is not on record here.

Chain of SARM1 (ARM-SAM-TIR) (Q6SZW1 other isoform, or with tags, fused parts or gaps): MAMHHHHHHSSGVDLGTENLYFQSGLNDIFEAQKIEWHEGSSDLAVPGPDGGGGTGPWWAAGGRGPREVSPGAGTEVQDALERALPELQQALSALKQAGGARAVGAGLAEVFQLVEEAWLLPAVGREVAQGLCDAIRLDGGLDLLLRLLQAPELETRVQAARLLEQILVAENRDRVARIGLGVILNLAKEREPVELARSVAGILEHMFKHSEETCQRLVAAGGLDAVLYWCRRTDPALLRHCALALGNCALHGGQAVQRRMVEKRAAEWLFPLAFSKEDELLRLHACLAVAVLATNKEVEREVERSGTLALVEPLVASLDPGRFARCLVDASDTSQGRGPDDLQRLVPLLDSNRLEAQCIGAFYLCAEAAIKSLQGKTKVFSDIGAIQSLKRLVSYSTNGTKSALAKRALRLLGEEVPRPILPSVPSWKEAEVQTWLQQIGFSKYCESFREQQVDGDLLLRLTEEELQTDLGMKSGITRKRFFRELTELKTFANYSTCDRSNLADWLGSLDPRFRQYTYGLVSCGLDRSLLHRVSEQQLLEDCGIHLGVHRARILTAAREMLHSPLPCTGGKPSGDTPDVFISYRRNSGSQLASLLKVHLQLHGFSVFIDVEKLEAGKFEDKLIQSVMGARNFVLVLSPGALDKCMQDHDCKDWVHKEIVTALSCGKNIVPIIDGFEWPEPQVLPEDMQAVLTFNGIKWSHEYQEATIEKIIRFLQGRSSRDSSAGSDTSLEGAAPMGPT

In this assay the target is SARM1 (ARM-SAM-TIR) (Homo sapiens (Human), UniProt Q6SZW1). The assay can be described thus: ARM-SAM-TIR SARM1 IC50 assay (NADase activity, NAD+ cleavage, RapidFire MS). The assay is classed as biochemical. The settings on record: ARM-SAM-TIR lysate 5 μg/mL, 2 h pre-incubation, 5 μM NAD+, 2 hr room temperature. Here is the method:
This Example describes an assay of ARM-SAM-TIR NADase activity and use of this assay to measure the efficacy of compounds of Formula I or Formula I′ to block SARM1 mediated NAD+ cleavage. This assay was optimized in such a way as to characterize the efficacy of the compounds in Formula I or Formula I′ to inhibit SARM1 activity and to calculate an IC50 value for each compound. This assay makes use of full length SARM1, which encompasses the ARM, SAM and TIR domains.
NRK1-HEK293T cells were seeded onto 150 cm^2 plates at 20×10^6 cells per plate. The next day, the cells were transfected with 15 μg ARM-SAM-TIR expression plasmid, SEQ ID NO: 1.
The cultures were supplemented with 1 mM NR at time of transfection to minimize toxicity from ARM-SAM-TIR overexpression. Forty-eight hours after transfection, cells were harvested, pelleted by centrifugation at 1,000 rpm (Sorvall ST 16R centrifuge, Thermo Fisher), and washed once with cold PBS (0.01 M phosphate buffered saline NaCl 0.138 M; KCl 0.0027 M; pH 7.4). The cells were resuspended in PBS with protease inhibitors (cOmplete™ protease inhibitor cocktail, Roche product #11873580001) and cell lysates were prepared by sonication (Branson Sonifer 450, output=3, 20 episodes of stroke). The lysates were centrifuged (12,000×g for 10 min at 4° C.) to remove cell debris and the supernatants (containing ARM-SAM-TIR protein) were stored at −80° C. for later use in the in vitro ARM-SAM-TIR NADase assay (see below). Protein concentration was determined by the Bicinchoninic (BCA) method and used to normalize lysate concentrations.
The enzymatic assay was performed in a 384-well polypropylene plate in Dulbecco's PBS buffer in a final assay volume of 20 μL. ARM-SAM-TIR lysate with a final concentration of 5 μg/mL was pre-incubated with the respective compound at 1% DMSO final assay concentration over 2 h at room temperature. The reaction was initiated by addition of 5 μM final assay concentration of NAD+ as substrate. After a 2 hr room temperature incubation, the reaction was terminated with 40 μL of stop solution of 7.5% trichloroactetic acid in acetonitrile. The NAD+ and ADPR concentrations were analyzed by a RapidFire High Throughput Mass Spectrometry System (Agilent Technologies, Santa Clara, Calif.) using an API4000 triple quadrupole mass spectrometer (AB Sciex Framingham, Mass.).
By IC50 is commonly meant the concentration needed to halve the response being measured. The molecule `O=C(CCc1ccc(Cl)nc1)Nc1nc(-c2ccncc2)c[nH]1` [Example 1] displayed a half-maximal inhibitory concentration (IC50) of under 5 µM.

`O=C(CCc1ccc(C(F)(F)F)s1)Nc1cc(-c2ccncc2)n[nH]1` [Example 2]: the 50% inhibitory concentration (IC50) is under 5 µM.

Consider `N[C@@H](Cc1ccc(Cl)cc1)C(=O)Nc1cc(-c2ccncc2)n[nH]1` [Example 3], for which the IC50 is under 5 µM.

Molecule `O=C(CNc1ccc(Cl)cc1)Nc1cc(-c2ccncc2)n[nH]1` [Example 4] registered a 50% inhibitory concentration (IC50) of under 5 µM.

In the case of `CC(C)(C)OC(=O)N(CC(=O)Nc1cc(-c2ccncc2)n[nH]1)c1ccc(Cl)cc1` [Example 5], the 50% inhibitory concentration (IC50) is under 5 µM.

For `CN(Cc1ccc(Cl)cc1)C(=O)Nc1cc(-c2ccncc2)n[nH]1` [Example 6], the concentration for half-maximal inhibition (IC50) was under 5 µM.

With `O=C(NCc1ccc(Cl)cc1)Nc1cc(-c2ccncc2)n[nH]1` [Example 7], the 50% inhibitory concentration (IC50) is under 5 µM.

In turn, `[2H]C([2H])(C(=O)Nc1nnc(-c2ccncc2)[nH]1)C([2H])([2H])c1ccc(Cl)nc1` [Example 8] yielded a concentration for half-maximal inhibition (IC50) of under 5 µM.

`[2H]C([2H])(C(=O)Nc1cc(-c2ccncc2)n[nH]1)C([2H])([2H])c1ccc(Cl)nc1` [Example 9] showed an IC50 of under 5 µM.

Turning to `O=C(CCc1ccc(Cl)c(Br)c1)Nc1nnc(-c2ccncc2)[nH]1` [Example 10], the half-maximal inhibitory concentration (IC50) is under 5 µM.

In the case of `O=C(CCc1ccc(Cl)cc1)Nc1nnc(-c2ccncc2F)[nH]1` [Example 11], the IC50 is under 5 µM.

`O=C(CCc1ccc(Cl)s1)Nc1nnc(-c2ccnnc2)[nH]1` [Example 12] had a concentration for half-maximal inhibition (IC50) of under 5 µM.

Molecule `O=C(CCc1ccc(Cl)c(F)c1)Nc1nnc(-c2ccnnc2)[nH]1` [Example 13] registered a half-maximal inhibitory concentration (IC50) of under 5 µM.

In turn, `O=C(CCc1cccc(F)c1)Nc1cc(-c2ccncc2)n[nH]1` [Example 14] registered a 50% inhibitory concentration (IC50) of under 5 µM.

Molecule `O=C(CCc1cccc(F)c1)Nc1nnc(-c2ccncc2)[nH]1` [Example 15] yielded a half-maximal inhibitory concentration (IC50) of under 5 µM.

For the molecule `O=C(CCc1ccc(F)c(F)c1)Nc1nnc(-c2ccncc2)[nH]1` [Example 16], the concentration for half-maximal inhibition (IC50) is under 5 µM.

For `O=C(CCc1ccc(F)c(F)c1)Nc1cc(-c2ccncc2)n[nH]1` [Example 17], the concentration for half-maximal inhibition (IC50) is under 5 µM.

The molecule `Cc1c(-c2ccncc2)n[nH]c1NC(=O)CCc1ccc(Cl)cc1` [Example 18] displayed an IC50 of under 5 µM.

The molecule `O=C(CCc1ccc(Cl)nc1)Nc1cc(-c2ccnnc2)n[nH]1` [Example 19] showed an IC50 of under 5 µM.

As to `O=C(CCc1ccc(Cl)cc1)Nc1nc(-c2ccncc2)c[nH]1` [Example 20], the 50% inhibitory concentration (IC50) is under 5 µM.

Take `O=C(CCc1ccc(Cl)nc1)Nc1nnc(-c2ccnnc2)[nH]1` [Example 21]: the concentration for half-maximal inhibition (IC50) was under 5 µM.

`O=C(Nc1nnc(-c2ccncc2)[nH]1)[C@H]1C[C@H](c2ccc(Cl)cc2)C1` [Example 22] gave a half-inhibitory concentration (IC50) of under 5 µM.

In turn, `O=C(Nc1nnc(-c2ccncc2)[nH]1)[C@H]1C[C@@H](c2ccc(Cl)cc2)C1` [Example 23] gave an IC50 of under 5 µM.

The molecule `O=C(CCc1ccc(Cl)s1)Nc1cc(-c2ccnnc2)[nH]n1` [Example 24] gave a half-inhibitory concentration (IC50) of under 5 µM.

For `O=C(CCc1ccc(Cl)cc1)Nc1cc(-c2ccncc2F)n[nH]1` [Example 25], the IC50 is under 5 µM.

In turn, `O=C(CCc1ccc(Cl)cc1)Nc1cc(-c2ccncn2)n[nH]1` [Example 26] showed an IC50 of under 5 µM.

On to `Cc1c(-c2ccncc2)n[nH]c1NC(=O)CCc1ccc(Cl)nc1` [Example 27], for which the IC50 was under 5 µM.

`Clc1ccc(OCCNc2nnc(-c3ccncc3)[nH]2)cc1` [Example 28] yielded a 50% inhibitory concentration (IC50) of over 30 µM.

As to `O=C(CC1CCOc2cc(Cl)ccc21)Nc1nnc(-c2ccncc2)[nH]1` (centres unmarked) [Example 29], the half-maximal inhibitory concentration (IC50) is under 5 µM.

With `O=C(CCc1ccc(C(F)(F)F)cc1)Nc1cc(-c2ccnnc2)n[nH]1` [Example 30], the concentration for half-maximal inhibition (IC50) is under 5 µM.

Take `Nc1cc(-c2cc(NC(=O)CCc3ccc(Cl)cc3)[nH]n2)ccn1` [Example 31]: the half-maximal inhibitory concentration (IC50) was under 5 µM.

`COc1cnccc1-c1nnc(NC(=O)CCc2ccc(Cl)cc2)[nH]1` [Example 32] registered an IC50 of under 5 µM.

The molecule `O=C(CCc1ccc(Cl)cc1)Nc1nnc(-c2ccnc(O)c2)[nH]1` [Example 33] returned an IC50 of over 30 µM.

The molecule `O=C(CCc1cnc(C(F)(F)F)nc1)Nc1cc(-c2ccncc2)n[nH]1` [Example 34] showed an IC50 of under 5 µM.

As for `O=C(Cc1c[nH]c2cc(Cl)ccc12)Nc1nnc(-c2ccncc2)[nH]1` [Example 35], the half-maximal inhibitory concentration (IC50) lay in the range of 5 to 15 µM.

Regarding `O=C(CCc1ccc(Cl)cc1Cl)Nc1nnc(-c2ccncc2)[nH]1` [Example 36], the IC50 is under 5 µM.

`O=C(CCc1ccc(F)cc1)Nc1cc(-c2ccncc2)n[nH]1` [Example 37] yielded an IC50 of under 5 µM.

In the case of `O=C(CN1C(=O)COc2cc(Cl)ccc21)Nc1cc(-c2ccncc2)n[nH]1` [Example 38], the half-maximal inhibitory concentration (IC50) is over 30 µM.

For `O=C(CN1C(=O)COc2cc(Cl)ccc21)Nc1nnc(-c2ccncc2)[nH]1` [Example 39], the IC50 is over 30 µM.

As for `O=C(CCc1ccc(Cl)cc1)Nc1cc(-c2ccnnc2)[nH]n1` [Example 40], the concentration for half-maximal inhibition (IC50) was under 5 µM.

`Clc1ccc(CCCNc2nnc(-c3ccncc3)[nH]2)cc1` [Example 41] yielded a half-maximal inhibitory concentration (IC50) of over 30 µM.

In turn, `Cc1cc(-c2n[nH]c(NC(=O)CCc3ccc(Cl)cc3)n2)ccn1` [Example 42] displayed an IC50 of over 30 µM.

Molecule `Nc1cc(-c2n[nH]c(NC(=O)CCc3ccc(Cl)cc3)n2)ccn1` [Example 43] had a concentration for half-maximal inhibition (IC50) of under 5 µM.

For the molecule `CCc1ccc(CCC(=O)Nc2nc(-c3ccncc3)n[nH]2)cc1` [Example 44], the IC50 is under 5 µM.

Consider `O=C(CCc1ccc(Cl)c(F)c1)Nc1nnc(-c2ccncc2)[nH]1` [Example 45], for which the IC50 is under 5 µM.

In turn, `O=C(CCc1ccc(Cl)cc1F)Nc1nnc(-c2ccncc2)[nH]1` [Example 46] returned an IC50 of under 5 µM.

`N#Cc1ccc(CCC(=O)Nc2cc(-c3ccncc3)n[nH]2)cc1` [Example 47] displayed an IC50 of under 5 µM.

`O=C(CN1CCOc2cc(Cl)ccc21)Nc1nnc(-c2ccncc2)[nH]1` [Example 48]: the IC50 is under 5 µM.

`O=C(CCc1ccc2[nH]ncc2c1)Nc1nnc(-c2ccncc2)[nH]1` [Example 49] showed an IC50 of over 30 µM.

Molecule `N#Cc1cc(Cl)ccc1CCC(=O)Nc1nnc(-c2ccncc2)[nH]1` [Example 50] showed an IC50 of under 5 µM.

`O=C(CCc1ccc(Cl)cc1)Nc1cc(-c2ccncc2)cnc1O` [Example 51]: the IC50 was over 30 µM.

`CN(C)C(Cc1ccccc1)C(=O)Nc1nnc(-c2ccncc2)[nH]1` (centres unmarked) [Example 52] registered a 50% inhibitory concentration (IC50) of over 30 µM.

Consider `O=C(CCc1ccc(Cl)cc1)Nc1nnc(-c2ccnnc2)[nH]1` [Example 53], for which the IC50 was under 5 µM.

In turn, `O=C(CCc1ccc(Cl)s1)Nc1cc(-c2ccncc2)[nH]n1` [Example 54] had an IC50 of under 5 µM.

As for `O=C(CCc1ccc(Cl)nc1)Nc1cc(-c2ccncc2)[nH]n1` [Example 55], the IC50 is under 5 µM.

Molecule `N[C@@H](Cc1ccc(Cl)cc1)C(=O)Nc1nnc(-c2ccncc2)[nH]1` [Example 56] showed an IC50 of under 5 µM.

As to `O=C(CCc1ncc(C(F)(F)F)cn1)Nc1nnc(-c2ccncc2)[nH]1` [Example 57], the IC50 lay within 15 to 30 µM.

For `O=C(CC1OCCc2ccccc21)Nc1nnc(-c2ccncc2)[nH]1` (centres unmarked) [Example 58], the half-maximal inhibitory concentration (IC50) was in the range of 5 to 15 µM.

Take `O=C(CCc1ccc(Cl)cc1)Nc1nnc(-c2ccncc2Cl)[nH]1` [Example 59]: the 50% inhibitory concentration (IC50) was under 5 µM.
